Assay results: patent US12629382B2, “Therapy” (Vestlandets Innovasjonsselskap AS, priority 2019, dated 2026)

Legend:
A172 glioma cells = assay: Intracellular GSH, GSH-Glo assay, A172 cells; assay type: cell-based; settings: Homo sapiens, 48 h, normalized to untreated control; for activity at 250 µM: A 172, 250 μM compound, read-out: Intracellular GSH level A172 250 μM; for activity at 500 µM: A 172, 500 μM compound, read-out: Intracellular GSH level A172 500 μM
Experimental: (§1) The cancer cell lines A172, A375, U87 and MCF7 were purchased from American Type Culture Collection (ATCC; Manassas, Va., USA). Cells were cultured in Dulbecco's Modified Eagle's Medium (DMEM) supplemented with 10% fetal bovine serum, 2% v/v L-glutamine, 3.2% v/v non-essential amino acids, antibiotics 2% v/v (penicillin-streptomycin), and 0.02% v/v Plasmocin at 37° C. and 5% CO2.
(§2) xCT expression of cancer cell lines was evaluated by western blotting from protein samples of cell lysates as described in Sleire et al., Oncogene 34: 5951-5959, 2015. Protein concentrations were determined by BCA assay (Thermo Fisher Scientific, USA) followed by SDS PAGE and immunoblotting using rabbit anti-xCT (Thermo Fisher Scientific) and rabbit anti-GAPDH (Abcam, Cambridge, UK) as a loading control. The compounds were dissolved in dimethylsulfoxide (DMSO) (Sigma Aldrich, Germany) and stock concentrations of 100 mM were stored at −20° C. in aliquots. Final concentrations were made in growth medium before adding to the cell monolayers.
(§3) The compounds were evaluated based on the measurement of intracellular Glutathione (GSH) which was performed by the GSH-Glo assay (Promega, Madison, WI, USA, cat #V6912) according to the manufacturer's recommended procedures. 5000 cells per well were seeded in a flat bottomed 96-well plate. After attachment to the well surface, cells were exposed to 250 μM and 500 μM of each compound for 48 h. After that, GSH-Glo reagent was added followed by short incubation and addition of luciferin detection reagent. Bioluminescence was measured using a luminometer (Victor 3 1420 multi-label counter, Perkins Elmer, Waltham, MA, USA). IC50 doses for the compounds SAS, DC10 and DC14 were determined in A172 glioma cells, using the GraphPad Prism v6 software (GraphPad Software, Inc. CA, USA). All measurements were normalized to the untreated control and were performed three times.

A375 = assay: Intracellular GSH, GSH-Glo assay, A375 cells; assay type: cell-based; settings: Homo sapiens, 48 h, normalized to untreated control; for activity at 250 µM: A-375, 250 μM compound, read-out: Intracellular GSH level A375 250 μM; for activity at 500 µM: A-375, 500 μM compound, read-out: Intracellular GSH level A375 500 μM
Experimental: as §1, §2, §3

MCF7 = assay: Intracellular GSH, GSH-Glo assay, MCF7 cells; assay type: cell-based; settings: Homo sapiens, 48 h, normalized to untreated control; for activity at 250 µM: 250 μM compound, read-out: Intracellular GSH level MCF7 250 μM; for activity at 500 µM: 500 μM compound, read-out: Intracellular GSH level MCF7 500 μM
Experimental: as §1, §2, §3

U87 = assay: Intracellular GSH, GSH-Glo assay, U87 cells; assay type: cell-based; settings: Homo sapiens, U-87 MG, 48 h, normalized to untreated control; for activity at 250 µM: 250 μM compound, read-out: Intracellular GSH level U87 250 μM; for activity at 500 µM: 500 μM compound, read-out: Intracellular GSH level U87 500 μM
Experimental: as §1, §2, §3

[1] = Assessment of toxicity associated with DC10 in mice; assay type: in vivo; settings: 16 mg by oral gavage, NOD/Scid mice, 24 or 48 hours
Source text: (§4) Experiments were approved by the Norwegian Animal Research Authority (Oslo, Norway) in accordance with the Guide for the Care and Use of Laboratory Animals (Institute for Laboratory Animal Research, National Research Council. Washington, D.C.: National Academy Press, 1996). NOD/Scid mice were kept at the animal facility at Department of Biomedicine at the University of Bergen. The animals were provided a standard pellet diet and tap water ad libitum. They were kept in a pathogen free environment at a constant temperature and humidity, and standard 12/12 h light and dark cycle.
DC10 was dissolved in distilled water and administered as a slurry by oral gavage. 16 mg was administered in a volume of 0.2 ml to each animal. […] Blood was sampled through heart puncture with a 3 ml syringe and 0.75 to 1 ml blood was collected. 250 μl was transferred to EDTA tubes that were tilted 15 times to avoid coagulation. The remaining volumes were transferred to 1.5 ml cryotubes and left to coagulate for 3 minutes before centrifugation at 2200 RCF for 10 minutes. This was followed by transfer of the supernatant to new cryotubes that were kept at −20° C., then thawed immediately prior to analysis at the clinical laboratory at Haukeland University Hospital. Blood collected on EDTA tubes underwent hematological analyses, whereas serum underwent biochemical analyses. Organs were also harvested, fixed on 4% formalin embedded in paraffin, sectioned and stained with hematoxylin and esosin.

A375 melanoma cells = assay: Validation of DC10 as a radiosensitizer in vivo, subcutaneous A375 tumours; design: species or system NOD/Scid mice; settings: DC10+RT: 8 mg DC10 on day 14, 4 Gy radiation at day 15, compared with control, DC10 alone
Source text: as §4
In this study 20 NOD/Scid mice were grafted with A375 melanoma cells. The A375 cell line was maintained in incubators at 37° C. and 5% CO2 prior to use in the animal experiment. A375 was cultured in DMEM (Sigma-Aldrich, St-Louis, MO, USA) with the supplement of 10% fetal bovine serum (FBS), 3.2% non-essential amino acids, 100 units/mL Penicillin/Streptomycin, […] L-glutamine (all Lonza, Cologne, Germany). Cells were passaged in vitro in medium sized 75 cm^2 culture flasks. […]
For induction of subcutaneous tumours, 5×10^5 A375 cells were injected in the right flank of 20 NOD/SCID mice, and the animals were randomly assigned to 4 groups with […]. […] Tumour growth data for the treatment groups and different time points were analysed with repeated measures for 2-way Anova analysis.

xCT antiport = molecular target: T1, xCT antiport (Homo sapiens, UniProt Q9UPY5); settings: reported in the literature; cited from earlier work
T1 sequence (Q9UPY5 1-501): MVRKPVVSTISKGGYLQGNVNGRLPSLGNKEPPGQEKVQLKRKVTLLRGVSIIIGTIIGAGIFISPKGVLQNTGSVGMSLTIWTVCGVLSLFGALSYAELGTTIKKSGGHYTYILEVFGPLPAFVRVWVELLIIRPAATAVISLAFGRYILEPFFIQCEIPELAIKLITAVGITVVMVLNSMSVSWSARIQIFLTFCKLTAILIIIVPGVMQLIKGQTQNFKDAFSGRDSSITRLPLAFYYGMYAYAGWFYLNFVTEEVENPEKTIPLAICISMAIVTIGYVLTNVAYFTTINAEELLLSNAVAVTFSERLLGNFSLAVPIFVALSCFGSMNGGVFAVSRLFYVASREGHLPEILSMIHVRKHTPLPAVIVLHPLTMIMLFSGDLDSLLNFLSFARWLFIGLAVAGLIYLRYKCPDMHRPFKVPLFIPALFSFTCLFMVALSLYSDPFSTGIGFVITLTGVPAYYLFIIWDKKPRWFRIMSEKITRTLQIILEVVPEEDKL
T1 sequence (P08195 1-529 partner): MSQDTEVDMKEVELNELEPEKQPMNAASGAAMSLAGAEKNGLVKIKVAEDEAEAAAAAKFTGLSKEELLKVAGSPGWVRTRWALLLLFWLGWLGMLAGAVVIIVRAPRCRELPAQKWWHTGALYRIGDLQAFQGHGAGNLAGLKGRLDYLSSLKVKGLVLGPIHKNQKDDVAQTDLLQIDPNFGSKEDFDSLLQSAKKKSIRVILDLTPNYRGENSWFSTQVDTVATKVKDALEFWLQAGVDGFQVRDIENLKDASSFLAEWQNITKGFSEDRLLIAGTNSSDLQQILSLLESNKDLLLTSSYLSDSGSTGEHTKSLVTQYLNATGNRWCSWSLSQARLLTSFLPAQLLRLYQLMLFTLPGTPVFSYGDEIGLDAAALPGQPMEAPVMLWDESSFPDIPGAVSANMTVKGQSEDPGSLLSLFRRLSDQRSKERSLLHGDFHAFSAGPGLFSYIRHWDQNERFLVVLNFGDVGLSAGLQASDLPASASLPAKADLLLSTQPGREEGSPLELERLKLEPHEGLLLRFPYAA

Molecule `O=C(O)c1cc(/C=C/c2ccc(-c3ccccc3)cc2)ccc1O` [DC10, (E)-5-(2-([1,1′-biphenyl]-4-yl)vinyl)-2-hydroxybenzoic acid] has an activity at 250 µM (A172 glioma cells) of 10.4%, an activity at 500 µM (A172 glioma cells) of 2.3% and an activity at 250 µM (A375) of 27.6%. For the same molecule, the activity at 500 µM (A375) was 3.1%, the activity at 250 µM (MCF7) was 28% and the activity at 500 µM (MCF7) was 10.9%. The activity at 250 µM (U87) was 76.1%, the activity at 500 µM (U87) was 7.3% and the Clinical inspection [1] was “did not reveal any signs, symptoms or deficits”. The “Hematological analysis: hemoglobin, thrombocytes and leukocytes” value [1] was “normal”, the “Histopathological examination of organs” value [1] was “did not show evidence of inflammation or other signs of tissue injury” and the “Macroscopic inspection of brain, lungs, heart, intestines, liver, kidneys and spleen” value [1] was “appeared normal”. The “Biochemical blood analysis: S-Kreatinin, γ-GT, S-ASAT, S-ALAT, Amylase, S-Glukose” value ([1]; serum) was “no significant elevation in S-Kreatinin (Kidney function), or shift in γ-GT, S-ASAT, S-ALAT, Amylase and S-Glukose” and the “Tumour volume versus the other groups” value (A375 melanoma cells) was “significantly smaller”.

Work on `O=C(O)c1cc(/N=N/c2ccc(S(=O)(=O)Nc3ccccn3)cc2)ccc1O` [SAS, Sulfasalazine, reference compound] yielded an activity at 250 µM (A172 glioma cells) of 15%, an activity at 500 µM (A172 glioma cells) of 2.1% and an activity at 250 µM (A375) of 13.5%. For the same molecule, the activity at 500 µM (A375) was 5.3%, the activity at 250 µM (MCF7) was 26.2% and the activity at 500 µM (MCF7) was 7.6%. The activity at 250 µM (U87) was 14%, the activity at 500 µM (U87) was 8% and the xCT activity (xCT antiport) was “blocking the cell membrane xCT antiport”.

In the case of `Nc1ccc(O)c(C(=O)O)c1` [mesalazine, 5-amino-2-hydroxybenzoic acid], the xCT activity (xCT antiport) is given as “without xCT activity”.

For `Nc1ccc(S(=O)(=O)Nc2ccccn2)cc1` [sulfapyridine, 4-amino-N-(pyridin-2-yl)benzenesulfonamide], the xCT activity (xCT antiport) is listed as “without xCT activity”.
